From ChEMBL document CHEMBL1255213, “Bottromycin derivatives: efficient chemical modifications of the ester moiety and evaluation of anti-MRSA and anti-VRE activities” (2010)
Values after ≈ are worked out from the molar mass of the structure shown.

How the values were obtained:
Type in all cases: functional
Staphylococcus aureus [1] = test: Antimicrobial activity against methicillin-resistant Staphylococcus aureus assessed as rate of residual activity; parameters: concentration or dose not given beside the values
Staphylococcus aureus [2] = test: Antimicrobial activity against Staphylococcus aureus FDA209P by standard serial-dilution technique
Staphylococcus aureus [3] = test: Antimicrobial activity against Staphylococcus aureus Smith by standard serial-dilution technique
Enterococcus faecium [4] = test: Antimicrobial activity against Enterococcus faecium NCTC 12201 by standard serial-dilution technique
Enterococcus faecium [5] = test: Antimicrobial activity against Enterococcus faecium NCTC 12203 by standard serial-dilution technique
Staphylococcus aureus [6] = test: Antimicrobial activity against methicillin-resistant Staphylococcus aureus HH1 by standard serial-dilution technique
Staphylococcus aureus [7] = test: Antimicrobial activity against methicillin-resistant Staphylococcus aureus 92-1191 by standard serial-dilution technique

CC(C)[C@@H]1NC(=O)[C@@H]2[C@H](C)CCN2C(=O)CN/C(=N\[C@H](C(=O)N[C@H](C(=O)N[C@H](CC(=O)NCc2ccccc2)c2nccs2)[C@@H](C)c2ccccc2)C(C)(C)C)[C@H](C(C)(C)C)NC1=O showed an Activity (Staphylococcus aureus [1]) of 71%, an MIC (Staphylococcus aureus [2]) of 8 µg/mL (≈ 8.91 µM) and an MIC (Staphylococcus aureus [3]) of 8 µg/mL (≈ 8.91 µM). It also gave an MIC (Enterococcus faecium [4]) of 8 µg/mL (≈ 8.91 µM), an MIC (Enterococcus faecium [5]) of 2 µg/mL (≈ 2.23 µM) and an MIC (Staphylococcus aureus [6]) of 8 µg/mL (≈ 8.91 µM). For the same compound, the MIC (Staphylococcus aureus [7]) was 8 µg/mL (≈ 8.91 µM).

CCCSC(=O)C[C@@H](NC(=O)[C@@H](NC(=O)[C@@H](/N=C1\NCC(=O)N2CC[C@@H](C)[C@H]2C(=O)N[C@@H](C(C)C)C(=O)N[C@H]1C(C)(C)C)C(C)(C)C)[C@@H](C)c1ccccc1)c1nccs1 showed an Activity (Staphylococcus aureus [1]) of 0%, an MIC (Staphylococcus aureus [2]) of 0.5 µg/mL (≈ 0.577 µM) and an MIC (Staphylococcus aureus [3]) of 0.5 µg/mL (≈ 0.577 µM). It also gave an MIC (Enterococcus faecium [4]) of 1 µg/mL (≈ 1.15 µM), an MIC (Enterococcus faecium [5]) of no more than 0.25 µg/mL and an MIC (Staphylococcus aureus [6]) of no more than 0.25 µg/mL. It also gave an MIC (Staphylococcus aureus [7]) of 1 µg/mL (≈ 1.15 µM).

For C#CCN1CCN(C(=O)C[C@@H](NC(=O)[C@@H](NC(=O)[C@@H](/N=C2\NCC(=O)N3CC[C@@H](C)[C@H]3C(=O)N[C@@H](C(C)C)C(=O)N[C@H]2C(C)(C)C)C(C)(C)C)[C@@H](C)c2ccccc2)c2nccs2)CC1, the Activity (Staphylococcus aureus [1]) was 67%, the MIC (Staphylococcus aureus [2]) was 16 µg/mL (≈ 17.5 µM) and the MIC (Staphylococcus aureus [3]) was 16 µg/mL (≈ 17.5 µM). The MIC (Enterococcus faecium [4]) was 16 µg/mL (≈ 17.5 µM), the MIC (Enterococcus faecium [5]) was 16 µg/mL (≈ 17.5 µM) and the MIC (Staphylococcus aureus [6]) was 16 µg/mL (≈ 17.5 µM). The MIC (Staphylococcus aureus [7]) was 32 µg/mL (≈ 35 µM).

CCC(=O)C[C@@H](NC(=O)[C@@H](NC(=O)[C@@H](/N=C1\NCC(=O)N2CC[C@@H](C)[C@H]2C(=O)N[C@@H](C(C)C)C(=O)N[C@H]1C(C)(C)C)C(C)(C)C)[C@@H](C)c1ccccc1)c1nccs1 gave an Activity (Staphylococcus aureus [1]) of 100%, an MIC (Staphylococcus aureus [2]) of 1 µg/mL (≈ 1.22 µM) and an MIC (Staphylococcus aureus [3]) of 1 µg/mL (≈ 1.22 µM). It also gave an MIC (Enterococcus faecium [4]) of 2 µg/mL (≈ 2.44 µM), an MIC (Enterococcus faecium [5]) of 1 µg/mL (≈ 1.22 µM) and an MIC (Staphylococcus aureus [6]) of 2 µg/mL (≈ 2.44 µM). For the same compound, the MIC (Staphylococcus aureus [7]) was 2 µg/mL (≈ 2.44 µM).

CC(C)[C@@H]1NC(=O)[C@@H]2[C@H](C)CCN2C(=O)CN/C(=N\[C@H](C(=O)N[C@H](C(=O)N[C@H](CC(=O)N2CCOCC2)c2nccs2)[C@@H](C)c2ccccc2)C(C)(C)C)[C@H](C(C)(C)C)NC1=O gave an Activity (Staphylococcus aureus [1]) of 100%, an MIC (Staphylococcus aureus [2]) of 16 µg/mL (≈ 18.2 µM) and an MIC (Staphylococcus aureus [3]) of 8 µg/mL (≈ 9.11 µM). The MIC (Enterococcus faecium [4]) was 16 µg/mL (≈ 18.2 µM), the MIC (Enterococcus faecium [5]) was 4 µg/mL (≈ 4.56 µM) and the MIC (Staphylococcus aureus [6]) was 16 µg/mL (≈ 18.2 µM). For the same compound, the MIC (Staphylococcus aureus [7]) was 32 µg/mL (≈ 36.4 µM).

Compound CC(C)[C@@H]1NC(=O)[C@@H]2[C@H](C)CCN2C(=O)CN/C(=N\[C@H](C(=O)N[C@H](C(=O)N[C@H](CC(=O)N2CCSCC2)c2nccs2)[C@@H](C)c2ccccc2)C(C)(C)C)[C@H](C(C)(C)C)NC1=O has an Activity (Staphylococcus aureus [1]) of 100%, an MIC (Staphylococcus aureus [2]) of 8 µg/mL (≈ 8.95 µM) and an MIC (Staphylococcus aureus [3]) of 4 µg/mL (≈ 4.47 µM). The MIC (Enterococcus faecium [4]) was 4 µg/mL (≈ 4.47 µM), the MIC (Enterococcus faecium [5]) was 4 µg/mL (≈ 4.47 µM) and the MIC (Staphylococcus aureus [6]) was 8 µg/mL (≈ 8.95 µM). It also gave an MIC (Staphylococcus aureus [7]) of 8 µg/mL (≈ 8.95 µM).

For CC(=O)NC[C@H]1CN(c2ccc(N3CCOCC3)c(F)c2)C(=O)O1 [LINEZOLID], the MIC (Enterococcus faecium [4]) was 2 µg/mL (≈ 5.93 µM) and the MIC (Enterococcus faecium [5]) was 2 µg/mL (≈ 5.93 µM).

With C#CCNC(=O)C[C@@H](NC(=O)[C@@H](NC(=O)[C@@H](/N=C1\NCC(=O)N2CC[C@@H](C)[C@H]2C(=O)N[C@@H](C(C)C)C(=O)N[C@H]1C(C)(C)C)C(C)(C)C)[C@@H](C)c1ccccc1)c1nccs1 the Activity (Staphylococcus aureus [1]) was 100%, the MIC (Staphylococcus aureus [2]) was 8 µg/mL (≈ 9.46 µM) and the MIC (Staphylococcus aureus [3]) was 8 µg/mL (≈ 9.46 µM). For the same compound, the MIC (Enterococcus faecium [4]) was 4 µg/mL (≈ 4.73 µM), the MIC (Enterococcus faecium [5]) was 2 µg/mL (≈ 2.36 µM) and the MIC (Staphylococcus aureus [6]) was 8 µg/mL (≈ 9.46 µM). It also gave an MIC (Staphylococcus aureus [7]) of 16 µg/mL (≈ 18.9 µM).

For CCSC(=O)C[C@@H](NC(=O)[C@@H](NC(=O)[C@@H](/N=C1\NCC(=O)N2CC[C@@H](C)[C@H]2C(=O)N[C@@H](C(C)C)C(=O)N[C@H]1C(C)(C)C)C(C)(C)C)[C@@H](C)c1ccccc1)c1nccs1, the Activity (Staphylococcus aureus [1]) was 0%, the MIC (Staphylococcus aureus [2]) was no more than 0.25 µg/mL and the MIC (Staphylococcus aureus [3]) was 0.5 µg/mL (≈ 0.586 µM). For the same compound, the MIC (Enterococcus faecium [4]) was no more than 0.25 µg/mL, the MIC (Enterococcus faecium [5]) was no more than 0.25 µg/mL and the MIC (Staphylococcus aureus [6]) was no more than 0.25 µg/mL. The MIC (Staphylococcus aureus [7]) was 0.5 µg/mL (≈ 0.586 µM).

For CC(C)[C@@H]1NC(=O)[C@@H]2[C@H](C)CCN2C(=O)CN/C(=N\[C@H](C(=O)N[C@H](C(=O)N[C@H](CC(=O)N2CCNCC2)c2nccs2)[C@@H](C)c2ccccc2)C(C)(C)C)[C@H](C(C)(C)C)NC1=O, the MIC (Staphylococcus aureus [2]) was 64 µg/mL (≈ 73 µM), the MIC (Staphylococcus aureus [3]) was 32 µg/mL (≈ 36.5 µM) and the MIC (Enterococcus faecium [4]) was 32 µg/mL (≈ 36.5 µM). It also gave an MIC (Enterococcus faecium [5]) of 32 µg/mL (≈ 36.5 µM), an MIC (Staphylococcus aureus [6]) of 64 µg/mL (≈ 73 µM) and an MIC (Staphylococcus aureus [7]) of 128 µg/mL (≈ 146 µM).

In the case of CC(C)SC(=O)C[C@@H](NC(=O)[C@@H](NC(=O)[C@@H](/N=C1\NCC(=O)N2CC[C@@H](C)[C@H]2C(=O)N[C@@H](C(C)C)C(=O)N[C@H]1C(C)(C)C)C(C)(C)C)[C@@H](C)c1ccccc1)c1nccs1, the Activity (Staphylococcus aureus [1]) is reported as 0%, the MIC (Staphylococcus aureus [2]) is reported as 0.5 µg/mL (≈ 0.577 µM) and the MIC (Staphylococcus aureus [3]) is reported as 0.5 µg/mL (≈ 0.577 µM). It also gave an MIC (Enterococcus faecium [4]) of 1 µg/mL (≈ 1.15 µM), an MIC (Enterococcus faecium [5]) of no more than 0.25 µg/mL and an MIC (Staphylococcus aureus [6]) of 0.5 µg/mL (≈ 0.577 µM). The MIC (Staphylococcus aureus [7]) was 1 µg/mL (≈ 1.15 µM).
